The results in this text go back to patent US11739098B2 (BRISTOL-MYERS SQUIBB COMPANY, priority 2017, dated 2023).

As usually defined, the IC50 is the concentration at which inhibition is half-maximal. Read a low IC50 as greater potency in that assay.

Common to all, as to type: cell-based
One experiment deals with T1, human TLR7 (Homo sapiens, UniProt Q9NYK1).
T1 construct: host or cells: HEK-Blue cells (HEK293-derived reporter line)
T1 sequence (Q9NYK1 27-1049): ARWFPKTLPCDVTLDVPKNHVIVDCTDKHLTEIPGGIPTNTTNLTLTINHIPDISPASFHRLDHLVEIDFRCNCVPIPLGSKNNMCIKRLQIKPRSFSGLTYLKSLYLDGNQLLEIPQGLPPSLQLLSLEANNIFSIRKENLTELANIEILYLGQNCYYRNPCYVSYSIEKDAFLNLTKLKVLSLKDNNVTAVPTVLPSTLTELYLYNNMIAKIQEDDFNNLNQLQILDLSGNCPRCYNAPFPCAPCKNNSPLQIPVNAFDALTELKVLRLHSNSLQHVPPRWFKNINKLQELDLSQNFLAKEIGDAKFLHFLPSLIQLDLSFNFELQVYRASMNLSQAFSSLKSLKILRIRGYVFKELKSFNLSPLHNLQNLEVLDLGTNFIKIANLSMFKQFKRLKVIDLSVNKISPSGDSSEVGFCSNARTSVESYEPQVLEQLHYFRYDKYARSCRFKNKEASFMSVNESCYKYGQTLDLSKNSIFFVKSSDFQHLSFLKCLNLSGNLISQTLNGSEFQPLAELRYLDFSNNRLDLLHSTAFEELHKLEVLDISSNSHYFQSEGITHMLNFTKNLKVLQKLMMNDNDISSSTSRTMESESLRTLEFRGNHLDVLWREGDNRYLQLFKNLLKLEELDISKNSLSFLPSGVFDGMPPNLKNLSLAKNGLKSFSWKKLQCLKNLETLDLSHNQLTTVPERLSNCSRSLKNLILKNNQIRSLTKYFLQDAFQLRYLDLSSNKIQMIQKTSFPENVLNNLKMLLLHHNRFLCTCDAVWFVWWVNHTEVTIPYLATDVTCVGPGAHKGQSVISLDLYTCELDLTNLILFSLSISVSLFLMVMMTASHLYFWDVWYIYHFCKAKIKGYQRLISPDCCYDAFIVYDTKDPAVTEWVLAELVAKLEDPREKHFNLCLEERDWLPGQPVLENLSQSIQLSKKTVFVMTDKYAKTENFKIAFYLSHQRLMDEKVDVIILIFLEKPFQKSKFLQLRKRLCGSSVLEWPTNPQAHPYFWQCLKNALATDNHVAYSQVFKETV
Kind of experiment: TLR7 inhibition reporter assay (HEK-Blue cells, SEAP reporter, gardiquimod stimulation). The settings on record: HEK-Blue cells overexpressing human TLR7, SEAP reporter, gardiquimod 7.5 μM. The procedure, abridged:
(§1)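 HEK-Blue cells overexpressing the receptor, with NF-κB/AP-1-driven SEAP, were pre-treated 30 min at room temperature with compound (0.05 nM–50 μM), then stimulated with gardiquimod 7.5 μM (TLR7), R848 15.9 μM (TLR8) or ODN2006 5 nM (TLR9). SEAP was read after 22 h at 37 °C as percent inhibition.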
For orientation: In a reporter assay the amount or activity of a reporter protein is the signal.

In another experiment the target is T2, human TLR8 (Homo sapiens, UniProt Q9NR97).
T2 construct: host or cells: HEK-Blue cells (HEK293-derived reporter line)
T2 sequence (Q9NR97 27-1041): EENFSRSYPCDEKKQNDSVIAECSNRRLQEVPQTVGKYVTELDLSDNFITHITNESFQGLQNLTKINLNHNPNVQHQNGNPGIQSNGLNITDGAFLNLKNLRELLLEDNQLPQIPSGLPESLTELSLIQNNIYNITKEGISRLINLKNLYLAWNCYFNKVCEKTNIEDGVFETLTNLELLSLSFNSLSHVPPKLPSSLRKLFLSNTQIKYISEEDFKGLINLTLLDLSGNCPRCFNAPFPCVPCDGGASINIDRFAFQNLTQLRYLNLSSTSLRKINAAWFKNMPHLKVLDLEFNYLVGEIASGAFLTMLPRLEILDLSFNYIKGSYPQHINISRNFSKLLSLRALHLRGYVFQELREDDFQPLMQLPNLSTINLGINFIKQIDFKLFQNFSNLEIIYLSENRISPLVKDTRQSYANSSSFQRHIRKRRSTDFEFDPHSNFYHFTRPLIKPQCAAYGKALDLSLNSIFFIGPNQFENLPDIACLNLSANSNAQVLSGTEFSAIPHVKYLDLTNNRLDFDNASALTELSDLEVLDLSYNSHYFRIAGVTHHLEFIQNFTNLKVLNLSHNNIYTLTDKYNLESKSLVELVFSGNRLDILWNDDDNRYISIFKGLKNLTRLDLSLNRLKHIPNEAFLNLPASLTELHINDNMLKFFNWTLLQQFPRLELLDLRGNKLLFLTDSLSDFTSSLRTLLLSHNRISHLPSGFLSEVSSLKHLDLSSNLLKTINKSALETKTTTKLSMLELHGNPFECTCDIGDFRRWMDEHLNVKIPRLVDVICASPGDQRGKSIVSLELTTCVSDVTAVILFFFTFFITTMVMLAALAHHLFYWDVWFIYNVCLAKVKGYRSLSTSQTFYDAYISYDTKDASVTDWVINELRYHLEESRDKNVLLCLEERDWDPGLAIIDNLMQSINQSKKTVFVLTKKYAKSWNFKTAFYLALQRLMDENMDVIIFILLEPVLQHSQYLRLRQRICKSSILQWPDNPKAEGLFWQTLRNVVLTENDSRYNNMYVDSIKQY
Kind of experiment: TLR8 inhibition reporter assay (HEK-Blue cells, SEAP reporter, R848 stimulation). The settings on record: HEK-Blue cells overexpressing human TLR8, SEAP reporter, R848 15.9 μM. The procedure, abridged: as §1

In a further experiment the target is T3, human TLR9 (Homo sapiens, UniProt Q9NR96).
T3 construct: host or cells: HEK-Blue cells (HEK293-derived reporter line)
T3 sequence (Q9NR96 26-1032): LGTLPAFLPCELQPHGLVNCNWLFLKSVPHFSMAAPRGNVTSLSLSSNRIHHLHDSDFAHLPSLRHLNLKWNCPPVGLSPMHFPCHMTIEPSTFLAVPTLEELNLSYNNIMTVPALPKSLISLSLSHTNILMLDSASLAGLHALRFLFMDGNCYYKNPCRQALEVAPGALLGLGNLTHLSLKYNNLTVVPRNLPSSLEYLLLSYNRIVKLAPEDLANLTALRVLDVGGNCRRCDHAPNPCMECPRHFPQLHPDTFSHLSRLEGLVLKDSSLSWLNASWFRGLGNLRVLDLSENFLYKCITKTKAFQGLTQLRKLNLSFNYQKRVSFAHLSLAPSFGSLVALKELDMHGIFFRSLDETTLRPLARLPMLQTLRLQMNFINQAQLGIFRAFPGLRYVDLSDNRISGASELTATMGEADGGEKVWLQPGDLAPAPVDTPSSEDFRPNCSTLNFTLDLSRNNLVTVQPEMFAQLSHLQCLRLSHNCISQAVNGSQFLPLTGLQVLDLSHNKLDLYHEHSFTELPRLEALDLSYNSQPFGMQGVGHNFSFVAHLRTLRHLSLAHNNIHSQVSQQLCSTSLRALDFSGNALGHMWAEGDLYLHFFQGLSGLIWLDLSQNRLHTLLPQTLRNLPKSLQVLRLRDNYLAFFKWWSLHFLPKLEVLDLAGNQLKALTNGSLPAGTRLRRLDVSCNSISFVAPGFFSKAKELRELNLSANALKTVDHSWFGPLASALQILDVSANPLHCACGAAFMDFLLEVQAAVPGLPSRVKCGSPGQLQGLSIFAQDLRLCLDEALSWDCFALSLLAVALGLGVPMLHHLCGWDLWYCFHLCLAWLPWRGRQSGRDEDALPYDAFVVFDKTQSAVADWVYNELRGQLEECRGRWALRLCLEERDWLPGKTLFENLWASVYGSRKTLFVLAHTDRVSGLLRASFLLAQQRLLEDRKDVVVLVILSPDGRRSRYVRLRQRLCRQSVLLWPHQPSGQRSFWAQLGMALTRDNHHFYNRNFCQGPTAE
Kind of experiment: TLR9 inhibition reporter assay (HEK-Blue cells, SEAP reporter, ODN2006 stimulation). The settings on record: HEK-Blue cells overexpressing human TLR9, SEAP reporter, ODN2006 5 nM. A digest of the protocol: as §1

Take `CCOc1cc(-c2[nH]c3ccc(C4CCN(CC(=O)NC)CC4)cc3c2C(C)C)cc2ncnn12` [Example 351, 2-(4-(2-(5-ethoxy-[1,2,4]triazolo[1,5-a]pyridin-7-yl)-3-isopropyl-1H-indol-5-yl)piperidin-1-yl)-N-methylacetamide]: the IC50 against human TLR7 is less than 100 nM; on human TLR8, less than 100 nM; against human TLR9, 1000 to 50000 nM.
Turning to `CC(C)c1c(-c2ccc3nccnc3c2)[nH]c2ccc(C3CCNCC3)cc12` [Example 165, 6-(3-isopropyl-5-(piperidin-4-yl)-1H-indol-2-yl)quinoxaline], the values for the IC50 against human TLR7, at human TLR8 and against human TLR9 were less than 100 nM, 100 to 1000 nM and 1000 to 50000 nM, respectively.
For `Cc1cc(-c2[nH]c3ccc(C4CCN(C5CCS(=O)(=O)CC5)CC4)cc3c2C(C)C)cn2nnnc12` [Example 788, 4-(4-(3-isopropyl-2-(8-methyltetrazolo[1,5-a]pyridin-6-yl)-1H-indol-5-yl)piperidin-1-yl)tetrahydro-2H-thiopyran 1,1-dioxide] the same measures were less than 100 nM, less than 100 nM and 1000 to 50000 nM.
With `CC(C)c1c(-c2ccc3nncn3n2)[nH]c2ccc(C3CCNCC3)cc12` [Example 185, 6-(3-isopropyl-5-(piperidin-4-yl)-1H-indol-2-yl)-[1,2,4] triazolo[4,3-b]pyridazine], the results for the IC50 at human TLR7, against human TLR8 and against human TLR9 were 100 to 1000 nM, 100 to 1000 nM and 1000 to 50000 nM, respectively.
Consider `Cc1c(-c2[nH]c3ccc(C4CCN(C5CCOCC5)CC4)cc3c2C(C)C)nn2ncnc2c1C` [Example 684, 6-(3-isopropyl-5-(1-(tetrahydro-2H-pyran-4-yl)piperidin-4-yl)-1H-indol-2-yl)-7,8-dimethyl-[1,2,4]triazolo[1,5-b]pyridazine], for which the IC50 is less than 100 nM on human TLR7, less than 100 nM on human TLR8 and 1000 to 50000 nM at human TLR9.
For `CC(C)c1c(-c2cnc3ccnn3c2)[nH]c2ccc(C3CCN(Cc4cnn(C)c4)CC3)cc12` [Example 932, 6-(3-isopropyl-5-(1-((1-methyl-1H-pyrazol-4-yl)methyl)piperidin-4-yl)-1H-indol-2-yl)pyrazolo[1,5-a]pyrimidine], the IC50 was in the range of 100 to 1000 nM on human TLR7, 1000 to 50000 nM at human TLR8 and 100 to 1000 nM against human TLR9.
For the compound `CC(C)c1c(-c2ccnc3cnn(C)c23)[nH]c2ccc(C3CCNCC3)cc12` [Example 42, 7-(3-isopropyl-5-(piperidin-4-yl)-1H-indol-2-yl)-1-methyl-1H-pyrazolo[4,3-b]pyridine], the IC50 fell in the range of 1000 to 50000 nM on human TLR7, 100 to 1000 nM on human TLR8 and 1000 to 50000 nM against human TLR9.
As for `CC(C)c1c(-c2n[nH]c3ncccc23)[nH]c2ccc(C3CCNCC3)cc12` [Example 18, 3-(3-isopropyl-5-(piperidin-4-yl)-1H-indol-2-yl)-1H-pyrazolo[3,4-b]pyridine], the IC50 against human TLR7 was less than 100 nM; on human TLR8, less than 100 nM; at human TLR9, 1000 to 50000 nM.
In the case of `CCc1c(-c2ccnc3[nH]ncc23)[nH]c2ccc(C3CCNCC3O)cc12` (stereo not drawn) [Example 175, 4-(3-ethyl-2-(1H-pyrazolo[3,4-b]pyridin-4-yl)-1H-indol-5-yl)piperidin-3-ol], the concentration for half-maximal inhibition (IC50) lay in the range of 100 to 1000 nM against human TLR7, 100 to 1000 nM on human TLR8 and 1000 to 50000 nM at human TLR9.
With `Cc1cc(-c2[nH]c3ccc(C4CCN(C5COC5)CC4)cc3c2C(C)C)cc2cncn12` [Example 724, 7-(3-isopropyl-5-(1-(oxetan-3-yl)piperidin-4-yl)-1H-indol-2-yl)-5-methylimidazo[1,5-a]pyridine], the IC50 against human TLR7 was in the range of 100 to 1000 nM; against human TLR8, 100 to 1000 nM; against human TLR9, 1000 to 50000 nM.
For the compound `CC(C)c1c(-c2cnc3ncnn3c2)[nH]c2ccc(C3CCNCC3)cc12` [Example 170, 6-(3-isopropyl-5-(piperidin-4-yl)-1H-indol-2-yl)-[1,2,4]triazolo[1,5-a]pyrimidine], the IC50 against human TLR7 was less than 100 nM; against human TLR8, less than 100 nM; at human TLR9, 100 to 1000 nM.
With `Cc1cc(-c2[nH]c3ccc(C4CCN(Cc5ccn(C)n5)CC4)cc3c2C(C)C)cc2cnnn12` [Example 891, 5-(3-isopropyl-5-(1-((1-methyl-1H-pyrazol-3-yl)methyl)piperidin-4-yl)-1H-indol-2-yl)-7-methyl-[1,2,3]triazolo[1,5-a]pyridine], the figures for the IC50 at human TLR7, at human TLR8 and on human TLR9 were less than 100 nM, less than 100 nM and 100 to 1000 nM, respectively.
On to `CCc1c(-c2ccnc3c(N)n[nH]c23)[nH]c2ccc(C3CCNCC3)cc12` [Example 238, 7-(3-ethyl-5-(piperidin-4-yl)-1H-indol-2-yl)-1H-pyrazolo[4,3-b]pyridin-3-amine], for which the concentration for half-maximal inhibition (IC50) on human TLR7 is less than 100 nM; against human TLR8, 100 to 1000 nM; against human TLR9, 1000 to 50000 nM.
